# Test results published in patent US20250206724A1, “SUBSTITUTED 3-AMINO INDAZOLE DERIVATIVES AS KINASE INHIBITORS” (NERVIANO MEDICAL SCIENCES S.R.L., priority 2022, published 2025).
# Structures can show the parent of a compound that is named as a salt. Where two headings read alike, the source gives them in different places.
# Experiments:
# EoL-1-cell = test: Cytotoxicity assay (CellTiterGlo, 72 hours treatment), EoL-1; type: cell-based, Human; settings: EoL-1 acute myeloid leukemia cells, ATP determination, read-out: Cell line IC50 EoL-1-cell
# Description: (§1) Cell Lines and Cell Cultures
# (§2) All cell lines were seeded at a density ranging from 2,400 to 8,000 cells/well in 384-well cell culture microplates and incubated at […] in a humidified 5% […] atmosphere 24 hours before treatment. Compound solutions were directly administered to the cells using the D300e digital dispenser (Tecan) to obtain scalar final concentrations ranging from 5 nM to 10 μM (duplicate wells for each point), with 80 uL final volume per well. The final DMSO concentration in test wells was adjusted to 0.1% (v/v); control wells were mock-treated and contained the same final concentration of DMSO.
# (§3) Cell viability was determined after 72 hours treatment by ATP determination in each test well with a luciferase-based detection system (CellTiterGlo, Promega, Madison, WI, USA), following manufacturer's instructions. The intensity of emitted light was measured using an EnVision reader (PerkinElmer, Waltham, MA USA) and expressed as RLU. One to three independent experiments were performed for each cell line, as indicated.
# (§4) Analysis of Antiproliferative Data
# (§5) Cell growth inhibitory activity was evaluated comparing treated versus control data using the Assay Explorer software suite (Symix Technologies Inc.). IC50s values were calculated by sigmoidal fitting interpolation using the following quadriparametric Hill equation: […]
# (§6) The Top, Bottom and Hill slope parameters were left free to assume any value, but only curves whose Hill slope had values between 0.5 and 4 were arbitrarily considered acceptable and used to calculate the average IC50s. Curves too steep (HillSlope≥4) or too slight (HillSlope≤0.5) were not included (Table C).
# MOLM-13 = test: Cytotoxicity assay (CellTiterGlo, 72 hours treatment), MOLM-13; type: cell-based, Human; settings: MOLM-13 acute myeloid leukemia cells, ATP determination, read-out: Cell line IC50 MOLM-13
# Description: as §1, §2, §3, §4, §5, §6
# NB-4 = test: Cytotoxicity assay (CellTiterGlo, 72 hours treatment), NB-4; type: cell-based, Human; settings: NB-4 acute myeloid leukemia cells, ATP determination, read-out: Cell line IC50 NB-4
# Description: as §1, §2, §3, §4, §5, §6
# CDK11A = target: T1, CDK11A (Homo sapiens, UniProt Q9UQ88); settings: displacement of SNS-032-Atto590 probe (0.002 μM) from CDK11A-p58 (0.032 uM), fluorescence polarization;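 further: compound preincubated 30 min with CDK11A-p58, then probe added and polarization (mP) read 15 min later, 0% displacement is probe plus enzyme, 100% is probe alone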
# T1 sequence (Q9UQ88 346-783): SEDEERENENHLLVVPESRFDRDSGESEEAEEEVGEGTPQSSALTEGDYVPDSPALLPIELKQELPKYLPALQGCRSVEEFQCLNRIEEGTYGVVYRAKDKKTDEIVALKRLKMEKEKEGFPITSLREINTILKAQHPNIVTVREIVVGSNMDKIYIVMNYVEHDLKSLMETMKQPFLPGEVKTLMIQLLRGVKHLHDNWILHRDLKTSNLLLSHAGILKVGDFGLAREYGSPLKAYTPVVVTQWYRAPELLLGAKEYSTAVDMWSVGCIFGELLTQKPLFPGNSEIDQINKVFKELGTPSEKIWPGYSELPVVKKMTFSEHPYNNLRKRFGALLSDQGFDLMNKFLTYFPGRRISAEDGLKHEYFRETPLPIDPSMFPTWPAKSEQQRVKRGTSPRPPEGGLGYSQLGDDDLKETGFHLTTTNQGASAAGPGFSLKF
# Description: Biochemical Kinase Inhibition Assay on CDK11 in Displacement Assay Format
# Displacement Assay Format
# Fluorescence Polarization (FP) experiments were carried out at room temperature using no-binding black 384-well microplates (Corning, NY), in 50 mM Tris HCl, pH 8, 10 mM MgCl2, 1 mM DTT, 1 mM CHAPS in a final volume of 60 μl. The plate reader was the Pherastar microplate reader (BMG). Polarization values were read using excitation and emission wavelengths of 590 and 675 nm, respectively. All FP values are expressed as mP units.
# Compounds were 4-folds serially diluted in 100% DMSO and added directly to the CDK11A-p58 solution using the pin tool (V & P Scientific): 0.2 ul of the different compound concentrations in 20 ul of enzyme solution. After an incubation of 30 minutes at r.t., 40 ul of probe solution were added. […] The Pherastar reading is performed after 15 minutes of all components incubation. For each assay, high controls (equivalent to 0% displacement) contain probe, CDK11A-p58, and 0.33% DMSO, whereas low controls (equivalent to 100% displacement) contain only probe and 0.33% DMSO. Controls are used for the Z′ and signal to background evaluation.
# The data per each molecule are analyzed by Prism SW or an internally customized version of the SW package “Assay Explorer” which provides sigmoidal fittings of the ten-dilution curves for DC50 determination using a 4 parameters logistic equation:
# where x is the logarithm of the inhibitor concentration, y is the response; y starts at bottom and goes to top with a sigmoid shape.
Structure (SMILES),"IC50 (EoL-1-cell; Homo sapiens, EOL1, 72 h)","IC50 (MOLM-13; Homo sapiens, MOLM-13, 72 h)","IC50 (NB-4; Homo sapiens, NB-4, 72 h)",DC50 (CDK11A),IC50 (EoL-1-cell),IC50 (MOLM-13),IC50 (NB-4)
"C[C@@H]1CC[C@@H](C(=O)Nc2n[nH]c3ccc(-c4cc(C#N)ccc4Cl)cc23)CN1 [compound 179, (3R,6R)-N-[5-(2-Chloro-5-cyanophenyl)-1H-indazol-3-yl]-6-methylpiperidine-3-carboxamide trifluoroacetate]",259 nM,414 nM,335 nM,21 nM,–,–,–
"O=C(Nc1n[nH]c2ccc(-c3c(Cl)cccc3Cl)cc12)[C@@H]1CCCNC1 [compound 169, (3R)-N-[5-(2,6-Dichlorophenyl)-1H-indazol-3-yl]piperidine-3-carboxamide hydrochloride]",281 nM,219 nM,317 nM,21 nM,–,–,–
"CC1(C)CCC(C(=O)Nc2n[nH]c3ccc(-c4cc(C#N)ccc4Cl)cc23)CN1 (single isomer, unassigned; (-)) [compound 203, (−)-N-[5-(2-Chloro-5-cyanophenyl)-1H-indazol-3-yl]-6,6-dimethylpiperidine-3-carboxamide]",–,–,–,181 nM,1250 nM,1380 nM,1320 nM
